Experimental data reported in US9174994B2, “Enhanced treatment regimens using mTor inhibitors” (INTELLIKINE LLC, priority 2011, dated 2015).

Each compound was assayed on PC3 (assay: PC3 proliferation). Conditions: Homo sapiens, PC-3; Table 1.
Format: cell-based

IC50 [µM] | SMILES
< 1 | CC(=O)Nc1nc2cc(-c3nn(C(C)C)c4ncnc(N)c34)ccc2o1 [Compound 2]
< 10 | CC(C)n1nc(-c2ccc3nc(N)oc3c2)c2c(N)ncnc21 [Compound 4]
< 0.1 | Nc1nc2cc(-c3nn(C4CCOCC4)c4ncnc(N)c34)ccc2o1 [Compound 5]
< 1 | Nc1nc2cc(-c3nn(C4CCC(N5CCOCC5)CC4)c4ncnc(N)c34)ccc2o1 (stereo not shown) [Compound 6]
< 10 | CC(=O)N1CCC(n2nc(-c3ccc4oc(N)nc4c3)c3c(N)ncnc32)CC1 [Compound 7]
< 0.1 | CC(C)n1cc(-c2ccc3oc(N)nc3c2)c2c(N)ncnc21 [Compound 8]
< 0.1 | Nc1nc2cc(-c3cn(C4CCOCC4)c4ncnc(N)c34)ccc2o1 [Compound 9]
> 10 | CC(C)n1nc(-c2ccc3onc(N)c3c2)c2c(N)ncnc21 [Compound 10]
> 10 | CC(=O)Nc1noc2cc(-c3nn(C(C)C)c4ncnc(N)c34)ccc12 [Compound 11]
> 10 | CC(C)n1nc(-c2ccc3c(N)noc3c2)c2c(N)ncnc21 [Compound 12]
